Key:
Format in all cases: in vivo, mice
[1] = Post-partum NR supplementation: milk volume and macronutrient density
Procedure: FIGS. 8A-C. Milk from NR-supplemented mothers had normal macronutrient density. Oxytocin-induced milk collection at indicated days. Protein (FIG. 8A), carbohydrate (FIG. 8B) and lipid concentration (FIG. 8C) was not changed. A series of in vivo murine experiments were performed to evaluate the effects of nicotinamide riboside on milk production. […] As shown in FIGS. 8A-C, the concentration of protein, carbohydrate and fat in the milk of NR-supplemented mothers was normal. Because there is approximately 2-fold more milk produced by NR-supplemented mothers, NR-supplemented mothers transmit more calories to their offspring, which thereby assists maternal weight loss and neonatal development. In FIG. 9A, the concentration of NAD precursor vitamins in the milk from control mothers and NR-supplemented mothers was determined. […] Oral NR was labeled with heavy atoms in the nicotinamide and ribose moieties of NR and this was provided to lactating mothers by gavage.

[2] = Pup growth and weanling body composition (post-partum maternal NR)
Procedure: FIG. 15. Maternal NR increases pup growth early in the neonatal period. Neonatal pups body weight from Day 0 to Day 14 (n=5 litter per group). FIGS. 16A-D. 21 day old pups of NR-supplemented mothers are bigger. Males and females were analyzed separately. The order of the bars from left to right are: males of normal chow (NC) mothers (white with light grey outline), followed by males of NR-supplemented mothers (filled light grey), followed by females of NC mothers (white with dark grey outline), followed by females of NR-supplemented mothers (filled dark grey). […] As shown in FIG. 16A-C, 21 day old weanlings of NR-supplemented mothers are larger in overall mass, fat mass and lean mass.

[3] = Offspring fasting glucose (Example 1)
Procedure: Female C57BL/6N mice were raised in 12 hour light:dark cycles on Teklad 2920X chow (NC). For 12 weeks prior to mating with a single C57BL/6N male, females were on either NC (n=4) or NC+NR (n=4). Females were maintained on the same diet through gestation and weaning, which was at 21 days after birth. […] The mild hypoglycemia of mice on standard chow was not expected and the improvement in glycemic control by virtue of supplementing mothers was unexpected.

[4] = Milk production, oxytocin-induced milk collection (Example 1); conditions: collected volume per mother after oxytocin, days 0, 7, 14 and 21 after partum; NC+NR vs NC
Procedure: Female C57BL/6N mice were raised in 12 hour light:dark cycles on Teklad 2920X chow (NC). For 12 weeks prior to mating with a single C57BL/6N male, females were on either NC (n=4) or NC+NR (n=4). Females were maintained on the same diet through gestation and weaning, which was at 21 days after birth.
To determine the production of milk, we separated mothers were separated from pups for several hours and provided an injection of oxytocin on days 0, 7, 14 and 21 after partum. Milk was carefully collected by pipetting and the collected volume per mother was plotted. The galactogogue activity of NR was striking and entirely unexpected.

[5] = tested on: PEPCK; test: Pup liver gluconeogenic gene expression; conditions: males and females whose mothers were NR-supplemented
Description: (§1) FIGS. 17A-C. 22 day old pups of NR-supplemented mothers have improved post-fasting glucose homoeostasis with higher gluconeogenic gene expression and higher hepatic glycogen storage. Not only are the offspring of NR-supplemented mothers a bit bigger, they also have better glycemic control. This is due to better gluconeogenic gene expression and higher glycogen storage. The order of the bars from left to right are: males of normal chow (NC) mothers (white with light grey outline), followed by males of NR-supplemented mothers (filled light grey), followed by females of NC mothers (white with dark grey outline), followed by females of NR-supplemented mothers (filled dark grey). Earlier it was shown that supplementation of females during their pregnancy and during the lactation period with NR produced pups with better glycemic control. […] Particularly as NR is not directly transmitted to offspring of NR-supplemented mothers, none of these effects of maternally supplemented NR could have been anticipated.

[6] = tested on: mTOR pathway; test: phospho-mTOR in mammary tissue; conditions: NR-supplemented mothers
Description: (§2) FIGS. 13A-D. NR boosts prolactin circulation and mammary biosynthetic pathways for protein, fat and carbohydrate. FIG. 13A. Prolactin levels in plasma from dam on NC or NR chow. FIG. 13B. mTOR pathway is activated in NR-supplemented mammary tissue. FIG. 13C. Genes involved in lipid biosynthesis are activated in NR-supplemented mammary tissue. FIG. 13D. Genes involved in lactose synthesis pathway are activated in NR-supplemented mammary tissue. […] In addition, the size of the mammary tissue itself is greater in NR-supplemented mothers than in non-supplemented mothers (FIG. 14A).

[7] = Dark/light chamber test of offspring
Description: FIGS. 20A-C. […] The order of the bars from left to right are: males of normal chow (NC) mothers (white with light grey outline), followed by males of NR-supplemented mothers (filled light grey), followed by females of NC mothers (white with dark grey outline), followed by females of NR-supplemented mothers (filled dark grey). It was considered interesting that males and female adults of NR-supplemented mothers maintain distinct physical advantages into adulthood on the basis of the mother's micronutrition. […] This could be interpreted either as a simple increase in activity and/or a less anxious state of being.

[8] = Balance beam test of offspring; conditions: 85 days old male and female offspring
Description: FIGS. 22A-C. 64 days after their mother's intervention, 85-day-old adults of NR-supplemented mothers have better performance on a balance beam. They cross a beam balance faster (untrained); they slip fewer times; and they almost never grip the beam with their tail. […] The order of the bars from left to right are: males of normal chow (NC) mothers (white with light grey outline), followed by males of NR-supplemented mothers (filled light grey), followed by females of NC mothers (white with dark grey outline), followed by females of NR-supplemented mothers (filled dark grey). The improved physical functions of adult offspring of NR-supplemented mothers were not confined to advantages in making less anxious choices about where to move in space, light and dark. At 85 days old, when mice were again 64 days past their mother's intervention—again all mice were on NC show for 64 days—their untrained ability to cross a balance beam was tested. […] This was not anticipated.

[9] = tested on: lipid biosynthetic genes and lactose biosynthetic genes; test: Mammary lipid and lactose biosynthetic gene expression; conditions: NR in the diet
Description: as §2

[10] = Pup post-fasting glucose and hepatic glycogen (post-partum maternal NR)
Description: as §1

[11] = supplementing post-gestational mothers
[12] = 21 day old weanlings of NR-supplemented mothers

NC(=O)c1ccc[n+]([C@@H]2O[C@H](CO)[C@@H](O)[C@H]2O)c1 [NR, nicotinamide riboside]
concentration of carbohydrate in the milk ([1]; NR-supplemented mothers): normal
concentration of fat in the milk ([1]; NR-supplemented mothers): normal
concentration of protein in the milk ([1]; NR-supplemented mothers): normal
milk produced vs non-supplemented mothers [1, 11]: approximately 2 fold
milk production [1, 11]: large increase
brain weight of weanlings ([2]; 21 day old females): tend to have larger brain weight
fat mass of weanlings [2, 12]: larger
lean mass of weanlings [2, 12]: larger
overall mass of weanlings [2, 12]: larger
neonatal size (pup body weight) ([2]; particularly at day 7 and 9): boosts neonatal size
glucose after an overnight fast, mice raised by NR-supplemented mothers [3]: better at maintaining glucose
increase in milk production [4]: 2-3 x
liver expression of the gluconeogenic bypass gene PEPCK [5]: higher
phosph-mTOR in mammary [6]: higher level
time in the light ([7]; 75 day-old female offspring): spend more time in the light
time in the light chamber of a dark/light chamber ([7]; 75 days of age, offspring of NR-supplemented mothers): more willing to spend time in the light chamber
slips on balance beam [8]: fewer slips
time to cross a balance beam (untrained) [8]: cross faster
use of tail to grip the balance beam [8]: virtually no use of their tails
mammary lactose biosynthetic genes [9]: strongly induced
mammary lipid biosynthetic genes [9]: strongly induced
post-fasting glucose homoeostasis of pups ([10]; 22 day old pups of NR-supplemented mothers): improved
glycogen stored in liver ([10]; males and females whose mothers were NR-supplemented): stored more glycogen

Source: US11633421B2, “Use of NAD precursors for improving maternal health and/or offspring health” (UNIVERSITY OF IOWA RESEARCH FOUNDATION, priority 2016, dated 2023)
